Patent US10806785B2, “Immunomodulator compounds and methods of use” (Incyte Corporation, priority 2016, dated 2020)

Target: PD-1/PD-L1 (Homo sapiens (Human), UniProt Q9NZQ7)
Experiment: PD-1/PD-L1 binding assay (HTRF)
Summary of the method: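 HTRF read-out (665/620 nm) after 60 min at 25 °C with 1 nM Eu anti-human IgG and 20 nM APC anti-His. Beforehand, inhibitors were preincubated 40 min with Fc-PD-1 (25-167, […] as listed) and His-PD-L1 (19-238, 10 nM) in PBS pH 7.4 with Tween-20, BSA, 1% DMSO; IC50 from log-concentration curve.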

Chain of PD-1/PD-L1 (Q9NZQ7 19-238): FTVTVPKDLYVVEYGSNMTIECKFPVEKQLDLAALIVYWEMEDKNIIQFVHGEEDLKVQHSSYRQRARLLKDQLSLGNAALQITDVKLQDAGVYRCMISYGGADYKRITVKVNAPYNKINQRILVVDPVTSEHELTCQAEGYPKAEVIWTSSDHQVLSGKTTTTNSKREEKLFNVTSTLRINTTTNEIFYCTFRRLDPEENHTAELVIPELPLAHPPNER

SMILES | IC50 [nM]
Cc1c(NC(=O)c2nc3c(n2C)CCN(C2CCC(C)(C(=O)O)CC2)C3)cccc1-c1cccc(NC(=O)c2nc3c(n2C)CCN(C(C)C)C3)c1Cl (stereo not shown) [Example 106, 4-(2-((2′-chloro-3′-(5-isopropyl-1-methyl-4,5,6,7-tetrahydro-1H-imidazo[4,5-c]pyridine-2-carboxamido)-2-methyl-[1,1′-biphenyl]-3-yl)carbamoyl)-1-methyl-1,4,6,7-tetrahydro-5H-imidazo[4,5-c]pyridin-5-yl)-1-methylcyclohexane-1-carboxylic acid] | ≤ 10
Cc1c(NC(=O)c2nc3c(n2C)CCN(C2CCC(C)(C(=O)O)CC2)C3)cccc1-c1cccc(NC(=O)c2nc3c(n2C)CCN(C2CCCCC2)C3)c1Cl (stereo not shown) [Example 107, 4-(2-((2′-chloro-3′-(5-cyclohcxyl-1-methyl-4,5,6,7-tetrahydro-1H-imidazo[4,5-c]pyridine-2-carboxamido)-2-methyl-[1,1′-biphenyl]-3-yl)carbamoyl)-1-methyl-1,4,6,7-tetrahydro-5H-imidazo[4,5-c]pyridin-5-yl)-1-methylcyclohexane-1-carboxylic acid] | ≤ 10
Cc1c(NC(=O)c2nc3c(n2C)CCN(C2CCC(C)(C(=O)O)CC2)C3)cccc1-c1cccc(NC(=O)c2nc3c(n2C)CCN(C2CCOCC2)C3)c1Cl (stereo not shown) [Example 108, 4-(2-((2′-chloro-2-methyl-3′-(1-methyl-5-(tetrahydro-2H-pyran-4-yl)-4,5,6,7-tetrahydro-1H-imidazo[4,5-c]pyridine-2-carboxamido)-[1,1′-biphenyl]-3-yl)carbamoyl)-1-methyl-1,4,6,7-tetrahydro-5H-imidazo[4,5-c]pyridin-5-yl)-1-methylcyclohexane-1-carboxylic acid] | ≤ 10
Cc1c(NC(=O)c2nc3c(n2C)CCN(C2CCC(C(=O)O)CC2)C3)cccc1-c1cccc(NC(=O)c2nc3c(n2C)CCN(C2CCOCC2)C3)c1Cl (stereo not shown) [Example 111, 4-(2-((2′-chloro-2-methyl-3′-(1-methyl-5-(tetrahydro-2H-pyran-4-yl)-4,5,6,7-tetrahydro-1H-imidazo[4,5-c]pyridine-2-carboxamido)-[1,1′-biphenyl]-3-yl)carbamoyl)-1-methyl-1,4,6,7-tetrahydro-5H-imidazo[4,5-c]pyridin-5-yl)cyclohexane-1-carboxylic acid] | ≤ 10
CCC1(C(=O)O)CCC(N2CCc3c(nc(C(=O)Nc4cccc(-c5cccc(NC(=O)c6nc7c(n6C)CCN(C6CCOCC6)C7)c5Cl)c4C)n3C)C2)CC1 (stereo not shown) [Example 112, 4-(2-((2′-chloro-2-methyl-3′-(1-methyl-5-(tetrahydro-2H-pyran-4-yl)-4,5,6,7-tetrahydro-1H-imidazo[4,5-c]pyridine-2-carboxamido)-[1,1′-biphenyl]-3-yl)carbamoyl)-1-methyl-1,4,6,7-tetrahydro-5H-imidazo[4,5-c]pyridin-5-yl)-1-ethylcyclohexane-1-carboxylic acid] | ≤ 10
Cc1c(NC(=O)c2nc3c(n2C)CCN(C)C3)cccc1-c1cccc(NC(=O)c2nc3c(n2C)CCN(CCc2ccc(C(=O)O)cc2)C3)c1Cl [Example 117, 4-(2-(2-((2-chloro-3′-(1,5-dimethyl-4,5,6,7-tetrahydro-1H-imidazo[4,5-c]pyridine-2-carboxamido)-2′-methyl-[1,1′-biphenyl]-3-yl)carbamoyl)-1-methyl-1,4,6,7-tetrahydro-5H-imidazo[4,5-c]pyridin-5-yl)ethyl)benzoic acid] | ≤ 10

The remaining lines, values ahead:

IC50 [nM] | SMILES
≤ 10 | CCN1CCc2c(nc(C(=O)Nc3cccc(-c4cccc(NC(=O)c5nc6c(n5C)CCN(C5CCC(C)(C(=O)O)CC5)C6)c4C)c3Cl)n2C)C1 (stereo not shown) [Example 105, 4-(2-((2′-chloro-3′-(5-ethyl-1-methyl-4,5,6,7-tetrahydro-1H-imidazo[4,5-c]pyridine-2-carboxamido)-2-methyl-[1,1′-biphenyl]-3-yl)carbamoyl)-1-methyl-1,4,6,7-tetrahydro-5H-imidazo[4,5-c]pyridin-5-yl)-1-methylcyclohexane-1-carboxylic acid]
≤ 10 | Cc1c(NC(=O)c2nc3c(n2C)CCN(CC[C@H]2CC[C@H](C(=O)O)CC2)C3)cccc1-c1cccc(NC(=O)c2nc3c(n2C)CCN(C2CCOCC2)C3)c1Cl [Example 109, trans-4-(2-(2-((2′-chloro-2-methyl-3′-(1-methyl-5-(tetrahydro-2H-pyran-4-yl)-4,5,6,7-tetrahydro-1H-imidazo[4,5-c]pyridine-2-carboxamido)-[1,1′-biphenyl]-3-yl)carbamoyl)-1-methyl-1,4,6,7-tetrahydro-5H-imidazo[4,5-c]pyridin-5-yl)ethyl)cyclohexane-1-carboxylic acid]
≤ 10 | Cc1c(NC(=O)c2nc3c(n2C)CCN(C[C@H]2CC[C@H](C(=O)O)CC2)C3)cccc1-c1cccc(NC(=O)c2nc3c(n2C)CCN(C2CCOCC2)C3)c1Cl [Example 110, trans-4-((2-((2′-chloro-2-methyl-3′-(1-methyl-5-(tetrahydro-2H-pyran-4-yl)-4,5,6,7-tetrahydro-1H-imidazo[4,5-c]pyridine-2-carboxamido)-[1,1′-biphenyl]-3-yl)carbamoyl)-1-methyl-1,4,6,7-tetrahydro-5H-imidazo[4,5-c]pyridin-5-yl)methyl)cyclohexane-1-carboxylic acid]
≤ 10 | Cc1c(NC(=O)c2nc3c(n2C)CCN(C[C@H]2CC[C@@H](C(=O)O)CC2)C3)cccc1-c1cccc(NC(=O)c2nc3c(n2C)CCNC3)c1Cl [Example 113, cis-4-((2-((2′-chloro-2-methyl-3′-(1-methyl-4,5,6,7-tetrahydro-1H-imidazo[4,5-c]pyridine-2-carboxamido)-[1,1′-biphenyl]-3-yl)carbamoyl)-1-methyl-1,4,6,7-tetrahydro-5H-imidazo[4,5-c]pyridin-5-yl)methyl)cyclohexane-1-carboxylic acid]
≤ 10 | Cc1c(NC(=O)c2nc3c(n2C)CCN(C)C3)cccc1-c1cccc(NC(=O)c2nc3c(n2C)CCN(CC[C@H]2CC[C@H](C(=O)O)CC2)C3)c1Cl [Example 115, trans-4-(2-(2-((2-chloro-3′-(1,5-dimethyl-4,5,6,7-tetrahydro-1H-imidazo[4,5-c]pyridine-2-carboxamido)-2′-methyl-[1,1′-biphenyl]-3-yl)carbamoyl)-1-methyl-1,4,6,7-tetrahydro-5H-imidazo[4,5-c]pyridin-5-yl)ethyl)cyclohexane-1-carboxylic acid]
≤ 10 | Cc1c(NC(=O)c2nc3c(n2C)CCN(C)C3)cccc1-c1cccc(NC(=O)c2nc3c(n2C)CCN(C[C@H]2CC[C@H](C(=O)O)CC2)C3)c1Cl [Example 116, trans-4-((2-((2-chloro-3′-(1,5-dimethyl-4,5,6,7-tetrahydro-1H-imidazo[4,5-c]pyridine-2-carboxamido)-2′-methyl-[1,1′-biphenyl]-3-yl)carbamoyl)-1-methyl-1,4,6,7-tetrahydro-5H-imidazo[4,5-c]pyridin-5-yl)methyl)cyclohexane-1-carboxylic acid]
≤ 10 | Cc1c(NC(=O)c2nc3c(n2C)CCN(C)C3)cccc1-c1cccc(NC(=O)c2nc3c(n2C)CCN(C2CCC(C)(C(=O)O)CC2)C3)c1Cl (stereo not shown) [Example 118, 4-(2-((2-chloro-3′-(1,5-dimethyl-4,5,6,7-tetrahydro-1H-imidazo[4,5-c]pyridine-2-carboxamido)-2′-methyl-[1,1′-biphenyl]-3-yl)carbamoyl)-1-methyl-1,4,6,7-tetrahydro-5H-imidazo[4,5-c]pyridin-5-yl)-1-methylcyclohexane-1-carboxylic acid]
